Common to all, as to assay type: cell-based
The test system of one assay is SA-01. Kind of assay: organism not typed.
The next assay has as its system BG 01. The assay is described as follows: MIC of G418 in liquid medium. The note with it: industrial strain BG 01. The protocol: (§1) Bacterial strains used as plasmid hosts included: Escherichia coli DH5: F'lendA1 hsdr17 (rk^−mk^−) supE44 thi-1 recA1 gyrA(Nal^r) relA1 (lacZYA-argF)U169 deoR (80dlac (lacZ)M15) (Sambrook et al., 1989). Yeast were tested in solid medium YPD and eight industrial strains, from laboratory and seven Amazonian strains were sensitive to 200 μg/ml and 500 μg/ml of G418. Afterwards, the minimum concentration of antibiotic that inhibits the growth (MIC) in liquid medium was determined (Table 1).

Another assay deals with CR-01. Kind of assay: MIC of G418 in liquid medium. The note with it: industrial strain CR-01. On the procedure:
as §1

Another assay deals with S288C. The assay is described as follows: MIC of G418 in liquid medium. The note with it: Saccharomyces cerevisiae, strain S288C. The protocol: as §1
In assay [1] the test system is Montrachet de la Champagne. The assay is described as follows: MIC of G418 in liquid medium. The note with it: industrial strain Montrachet de la Champagne. On the procedure: as §1
The subject of the next assay is L110. The assay is described as follows: MIC of G418 in liquid medium. The note with it: wild-type Amazon strain L110. The protocol: as §1
Another assay deals with L101. Kind of assay: MIC of G418 in liquid medium. The note with it: wild-type Amazon strain L101. The protocol: as §1
Another assay concerns L151. Kind of assay: MIC of G418 in liquid medium. The note with it: wild-type Amazon strain L151. On the procedure: as §1
The next assay relates to L77. The assay is described as follows: MIC of G418 in liquid medium. As to conditions: wild-type Amazon strain L77. The protocol:
as §1

A further assay concerns YPH252. The assay is described as follows: MIC of G418 in liquid medium. As to conditions: Saccharomyces cerevisiae, strain YPH252. On the procedure: as §1
A further assay deals with L106. Kind of assay: MIC of G418 in liquid medium. As to conditions: industrial strain L106. On the procedure: as §1
The test system of another assay is L69. Kind of assay: MIC of G418 in liquid medium. As to conditions: wild-type Amazon strain L69. The protocol:
as §1

For the next assay, the system named is L105. The assay is described as follows: MIC of G418 in liquid medium. As to conditions: industrial strain L105. The protocol:
as §1

The subject of the next assay is Fermix. Kind of assay: MIC of G418 in liquid medium. The note with it: industrial strain Fermix. On the procedure: as §1
The subject of the next assay is L136. The assay is described as follows: MIC of G418 in liquid medium. As to conditions: wild-type Amazon strain L136. The protocol:
as §1

A further assay has as its system PE-2. Kind of assay: MIC of G418 in liquid medium. The note with it: industrial strain PE-2. The protocol: as §1
The test system of another assay is L103. Kind of assay: MIC of G418 in liquid medium. As to conditions: wild-type Amazon strain L103. The protocol: as §1

Here are results for 1 molecule from patent US20040161820A1 (priority 2001, published 2004).

As a reminder, the MIC is the lowest concentration found to suppress growth. For `CN[C@@H]1[C@@H](O)[C@@H](O[C@@H]2[C@@H](O)[C@H](O[C@H]3O[C@H]([C@@H](C)O)[C@@H](O)[C@H](O)[C@H]3N)[C@@H](N)C[C@H]2N)OC[C@]1(C)O` [G418, geneticin], the MIC was at most 50 µg/mL with SA-01; at most 50 µg/mL in the assay on BG 01; at most 50 µg/mL in the assay with CR-01; 100 µg/mL with S288C; “≦50 μg/ml” in assay [1]; 150 µg/mL in the assay on L110. Moreover, the MIC is 100 µg/mL in the assay with L101; 12.5 µg/mL in the assay on L151; 25 µg/mL in the assay on L77; at most 50 µg/mL in the assay with YPH252; 25 µg/mL with L106; 100 µg/mL in the assay with L69. The MIC with L105 was 25 µg/mL; in the assay on Fermix, at most 50 µg/mL; in the assay on L136, 25 µg/mL; in the assay on PE-2, at most 50 µg/mL; in the assay on L103 it was 150 µg/mL.
